The text below walks through data of patent US9963466B2, “Substituted 5-membered heterocyclic analogs as protease activated receptor 4 (PAR-4) antagonists” (Vanderbilt University, priority 2016, dated 2018).

Bridge positions count the residues as written; N and C are the ends. Square brackets hold non-standard residues; d marks the D form. Ends that are not written are not given here. Peptide text beside a SMILES is read from it. * marks the point of attachment. Palmitoyl = CCCCCCCCCCCCCCCC(=O)*; hArg = N=C(N)NCCCC[C@H](N)C(=O)O; Mpa = O=C(O)CCS

Data set [1] concerns the target T1, protease-activated receptor type 4 (PAR4) (Homo sapiens, UniProt Q96RI0).
T1 construct: host or cells: platelets
T1 sequence (Q96RI0 18-385): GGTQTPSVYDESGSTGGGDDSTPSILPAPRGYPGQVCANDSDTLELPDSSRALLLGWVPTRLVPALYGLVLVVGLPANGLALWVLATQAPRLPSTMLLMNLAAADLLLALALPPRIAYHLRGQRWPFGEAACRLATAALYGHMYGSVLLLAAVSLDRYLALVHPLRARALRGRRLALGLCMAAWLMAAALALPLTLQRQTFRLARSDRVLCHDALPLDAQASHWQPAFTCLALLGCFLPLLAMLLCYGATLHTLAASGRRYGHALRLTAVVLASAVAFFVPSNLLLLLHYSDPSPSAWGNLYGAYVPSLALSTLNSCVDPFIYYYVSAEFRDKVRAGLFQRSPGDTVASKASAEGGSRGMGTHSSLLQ
As to conditions: abstract of Lee et al. 2001; cited from earlier work.

Data set [2] has as its target T2, PAR4 (Homo sapiens, UniProt Q96RI0).
T2 construct: 60 μL of washed platelets (Tyrodes buffer containing 0.1% BSA); endogenous in cells; host or cells: washed platelets
T2 sequence (Q96RI0 18-385): T1 sequence (Q96RI0 18-385)
The data set is described as follows: PAC-1 binding assay, platelets stimulated with γ-thrombin. Type of data set: cell-based. Conditions: stimulation with 316 nM γ-thrombin; compound concentration not given. An excerpt:
Gamma-thrombin is a proteolytic product of alpha-thrombin cleavage by a serine protease. Cleavage results in the disruption of exosite I which interacts directly with the hirudin-like domain of its primary substrates fibrinogen and protease-activated receptor 1 (PAR1). As a result, gamma-thrombin selectively cleaves PAR4 in the nanomolar range, leaving PAR1 intact. See Soslau, G., Class, R., Morgan, D. A., Foster, C., Lord, S. T., Marchese, P., and Ruggeri, Z. M. (2001) Unique pathway of thrombin-induced platelet aggregation mediated by glycoprotein Ib, The Journal of biological chemistry 276, 21173-21183. Gamma-thrombin (Enzyme Research Laboratories, South Bend, Ind.) is produced by trypsin-sepharose cleavage of alpha-thrombin. To neutralize alpha-thrombin contamination, stock solutions of gamma-thrombin are preincubated with 1 unit/mL hirudin prior 100 fold dilution into the sample for platelet stimulation. This concentration of hirudin is capable of abolishing alpha-thrombin activity with no effect on the activity of gamma-thrombin. See Soslau, G., Goldenberg, S. J., Class, R., and Jameson, B. (2004) Differential activation and inhibition of human platelet thrombin receptors by structurally distinct alpha-, beta- and gamma-thrombin, Platelets 15, 155-166. Single point screens and concentration response curves are conducted with 316 nanomolar or 100 nanomolar gamma-thrombin using PAC1 and CD61p binding.
(§1) PAC-1 Binding assay: 60 μL of washed platelets (Tyrodes buffer containing 0.1% BSA) at a concentration of 0.15×10^8 platelets/mL were added to 5 mL round bottom polystyrene tubes (BD, Franklin Lakes, N.J.). FITC conjugated PAC-1 (BD Biosciences, San Jose, Calif.) antibody was diluted (to the manufacturers recommended concentration) in Tyrode's buffer containing 0.1% BSA. 40 μL of diluted antibody was added to the platelets and allowed to incubate for 5 minutes. Platelets were pre-treated with indicated concentrations of antagonist or DMSO control for 5 minutes followed by addition of PAR-1-AP (GL Biochem, Shanghai, China) or PAR-4-AP for 10 minutes. Platelet activity was quenched by the addition ice cold 1.5% paraformaldehyde followed by dilution in 1× phosphate buffered saline. The final DMSO concentration was 0.5%. Platelets were stored up to 18 hours at 4° C. before flow cytometric analysis. Analysis was carried out on a BD FACS Canto II (Franklin Lakes, N.J.). Fluorescent intensity was determined for 100,000 events within the platelet gate. Data was collected and analyzed via FACS DiVa software. Flow cytometric data analysis was conducted by the following method. The DMSO-vehicle treated control was subtracted from each data point. 100% response for PAR-4-AP was determined for each individual as the DMSO treated control stimulated with either 200 μM PAR-4-AP, or 20 μM PAR-1-AP. Data was plotted in GraphPad PRISM v.5.0. For compounds with a notable reduction in PAC-1 binding response, a dose response curves and subsequent IC50 values were generated using the inhibitory sigmoidal dose response ‘variable slope’ parameter. PAR-4 results were plotted as mean±SEM.

In data set [3] the target is T2, PAR4. Put plainly: PAC-1 binding assay, washed platelets stimulated with PAR-4-AP (flow cytometry). Type of data set: cell-based. As to conditions: PAR-4-AP stimulation, dose response curve. The protocol: as §1
In general terms: A flow cytometer gives signals particle by particle.

Data set [4] concerns the target T3, PAR1 (Homo sapiens, UniProt P25116).
T3 construct: host or cells: patients, in vivo
T3 sequence (P25116 22-425): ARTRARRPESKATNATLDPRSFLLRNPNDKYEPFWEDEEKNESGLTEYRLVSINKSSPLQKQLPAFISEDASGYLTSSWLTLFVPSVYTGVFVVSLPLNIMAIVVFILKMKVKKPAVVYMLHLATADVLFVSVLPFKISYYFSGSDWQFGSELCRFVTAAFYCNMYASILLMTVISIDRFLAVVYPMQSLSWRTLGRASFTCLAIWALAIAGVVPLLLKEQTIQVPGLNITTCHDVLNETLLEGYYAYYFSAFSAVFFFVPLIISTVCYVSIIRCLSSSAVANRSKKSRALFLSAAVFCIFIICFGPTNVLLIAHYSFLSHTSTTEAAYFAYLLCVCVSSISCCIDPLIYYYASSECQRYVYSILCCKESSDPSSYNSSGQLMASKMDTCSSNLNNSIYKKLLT
Conditions: cited from earlier work.

The target of data set [5] is T3, PAR1. Conditions: cited from earlier work. The source holds these as a separate data set.
A further data set concerns influenza viruses. As to conditions: mice treated with GPIIbIIIa antagonist; cited from earlier work.
Data set [6] has as its target T4, PAR4 (Rattus norvegicus, UniProt Q920E0).
T4 construct: host or cells: rat, in vivo
T4 sequence (Q920E0 17-395): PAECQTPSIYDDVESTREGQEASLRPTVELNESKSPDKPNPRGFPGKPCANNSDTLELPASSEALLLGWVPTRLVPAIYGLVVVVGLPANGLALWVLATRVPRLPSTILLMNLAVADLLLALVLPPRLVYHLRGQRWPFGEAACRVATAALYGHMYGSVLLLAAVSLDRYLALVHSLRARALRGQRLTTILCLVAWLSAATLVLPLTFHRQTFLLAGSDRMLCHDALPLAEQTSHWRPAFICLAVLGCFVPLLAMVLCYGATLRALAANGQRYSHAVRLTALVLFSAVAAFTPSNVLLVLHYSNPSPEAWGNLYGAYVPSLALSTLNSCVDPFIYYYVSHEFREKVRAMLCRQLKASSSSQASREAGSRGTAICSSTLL
As to conditions: rat hindpaw, carrageenan; cited from earlier work.

Data set [7] deals with T4, PAR4. Conditions: rat myocardial ischemia/reperfusion; cited from earlier work.
The target in data set [8] is T5, PAR4 (Mus musculus, UniProt O88634).
T5 construct: PAR4-AP, or Trypsin injected pleural cavities of mice; host or cells: mouse, in vivo
T5 sequence (O88634 17-396): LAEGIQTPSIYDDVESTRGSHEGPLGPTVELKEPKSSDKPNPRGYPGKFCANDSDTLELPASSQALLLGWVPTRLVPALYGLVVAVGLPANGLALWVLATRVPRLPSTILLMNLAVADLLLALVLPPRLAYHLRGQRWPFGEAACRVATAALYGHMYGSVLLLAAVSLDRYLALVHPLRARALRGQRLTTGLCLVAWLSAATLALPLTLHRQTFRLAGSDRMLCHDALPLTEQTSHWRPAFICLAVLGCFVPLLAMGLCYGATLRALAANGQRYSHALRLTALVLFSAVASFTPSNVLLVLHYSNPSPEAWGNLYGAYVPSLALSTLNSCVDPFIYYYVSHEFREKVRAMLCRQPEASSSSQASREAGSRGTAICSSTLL
As to conditions: cited from earlier work.

Setting [9] is: non-ST-segment ACS patients undergoing CABG.
Setting [10] is: non-ST-segment elevation ACS patients.
The mark [11] stands for this setting: patients with myocardial infarction, added to standard anti-platelet therapy.
Setting [12] is: patients with peripheral artery disease.
Where [13] appears, read: patients with prior ischemic stroke, added to standard of care.

For `CCOC(=O)c1ccc(-c2nn(Cc3ccccc3)c3ccccc23)cc1`, the “inhibition of PAR4-dependent platelet activation” value in [1] is “selective and potent inhibitor”.

Take `COC(=O)c1[nH]c2ccc(OC(F)(F)F)cc2c1-c1cn2nc(OC)sc2n1` [Example B1, Methyl 3-(2-methoxyimidazo[2,1-b][1,3,4]thiadiazol-6-yl)-5-(trifluoromethoxy)-1H-indole-2-carboxylate]: the “γ-thrombin % Max PAC-1 binding (316 nM)” value at PAR4 [2] stood at 100%. On PAR4 [3], this compound had an IC50 of 2110 nM.

In the case of `COc1nn2cc(-c3cc(-c4ccc(Cl)cc4)no3)nc2s1` [Example B2], the “γ-thrombin % Max PAC-1 binding (316 nM)” value on PAR4 [2] is 94%. The compound further gave an IC50 on PAR4 [3] of 1930 nM.

Regarding `COc1nn2cc(-c3csc4ccccc34)nc2s1` [Example B3], on PAR4 [2], the “γ-thrombin % Max PAC-1 binding (316 nM)” value was 99%. Moreover, the IC50 at PAR4 [3] amounted to 458 nM.

`COc1nn2cc(-c3c(-c4ccccc4)noc3C)nc2s1` [Example B4]: on PAR4 [2], the “γ-thrombin % Max PAC-1 binding (316 nM)” value is recorded as 93%.

For `COc1nn2cc(-c3cnn(-c4ccccc4)c3C)nc2s1` [Example B5], on PAR4 [2], the “γ-thrombin % Max PAC-1 binding (316 nM)” value came to 95%. Besides, at PAR4 [3], the IC50 was determined as 1530 nM.

In the case of `COc1nn2cc(-c3sc(-c4ccccc4)nc3C)nc2s1` [Example B6], on PAR4 [2], the “γ-thrombin % Max PAC-1 binding (316 nM)” value was found to be 92%. At PAR4 [3], this compound gave an IC50 of 69.8 nM.

Consider `COc1nn2cc(-c3nccs3)nc2s1` [Example B7], for which, at PAR4 [2], the “γ-thrombin % Max PAC-1 binding (316 nM)” value is 98%.

Turning to `COc1nn2cc(-c3ccc(-c4ccccc4)s3)nc2s1` [Example B8, 2-Methoxy-6-(5-phenylthiophen-2-yl)imidazo[2,1-b][1,3,4]thiadiazole], the “γ-thrombin % Max PAC-1 binding (316 nM)” value on PAR4 [2] came out at 78%. For the same compound, the IC50 at PAR4 [3] was determined as 7.46 nM.

For `CCOC(=O)N[C@@H]1CC[C@@H]2[C@@H](C1)C[C@H]1C(=O)O[C@H](C)[C@H]1[C@H]2/C=C/c1ccc(-c2cccc(F)c2)cn1` [Vorapaxar], at PAR1 [4] (setting [9]), the ischemic events result was “significant reduction” and the “major CABG-related bleeding” value is listed as “no significant increase”. In addition, on PAR1 [4] (setting [10]), the primary composite endpoint entry is on record as “did not significantly reduce” and the “risk of major bleeding, including intracranial hemorrhage” value was “significant increase”. Moreover, at PAR1 [5] (setting [11]), the “moderate to severe bleeding” value is “significant increase” and the “risk of cardiovascular death or ischaemic events” value was “reduced the risk”. At PAR1 [5] (setting [12]), the “limb ischemia and peripheral revascularization” value is “significant beneficial effects”; the risk of bleeding result was “increased risk of bleeding”. Besides, on PAR1 [5] (setting [13]), the major vascular events result is recorded as “without improvement” and the “risk of intracranial hemorrhage” value is given as “increased the risk”.

In the case of `N=C(N)NCCCC[C@@H]1NC(=O)CCSSC[C@@H](C(N)=O)NC(=O)[C@@H]2CCCN2C(=O)[C@H](Cc2c[nH]c3ccccc23)NC(=O)[C@H](CC(=O)O)NC(=O)CNC1=O` [eptifibatide] ([Mpa][hArg]GDWPC-NH2; disulfide 1-7), in the data set on influenza viruses, the “protection from death caused by influenza viruses” value is reported as “had the same effect”.

Regarding “palmitoly-SGRRYGHALR (Palmitoyl-SGRRYGHALR) [palmitoylated peptide named beside P4pal-10 in the carrageenan model]”, the “edema and granulocyte recruitment” value with PAR4 [6] was “reduced edema and granulocyte recruitment”.

On to trans-cinnamoyl-YPGKF [tcY-NH2], for which, on PAR4 [7], the infarct size result was “reduced infarct size”. Besides, the neutrophil migration result at PAR4 [8] (CXCL8, carrageenan, PAR4-AP or Trypsin injected pleural cavities of mice) is “inhibit neutrophil migration”. On PAR4 [8] (after intrapleural injection of Eotaxin-1), the eosinophil recruitment result was “blocks eosinophil recruitment”.

As usually defined, the IC50 is the point on the concentration scale where inhibition reaches its midpoint. A lower IC50 goes with greater potency in that assay.
